pEC50: −log10 of the molar value. Where two headings read alike, the source gives them in different places.
Molecular target: T1, human M2 receptor (Homo sapiens, UniProt P08172)
T1 sequence (P08172 1-466): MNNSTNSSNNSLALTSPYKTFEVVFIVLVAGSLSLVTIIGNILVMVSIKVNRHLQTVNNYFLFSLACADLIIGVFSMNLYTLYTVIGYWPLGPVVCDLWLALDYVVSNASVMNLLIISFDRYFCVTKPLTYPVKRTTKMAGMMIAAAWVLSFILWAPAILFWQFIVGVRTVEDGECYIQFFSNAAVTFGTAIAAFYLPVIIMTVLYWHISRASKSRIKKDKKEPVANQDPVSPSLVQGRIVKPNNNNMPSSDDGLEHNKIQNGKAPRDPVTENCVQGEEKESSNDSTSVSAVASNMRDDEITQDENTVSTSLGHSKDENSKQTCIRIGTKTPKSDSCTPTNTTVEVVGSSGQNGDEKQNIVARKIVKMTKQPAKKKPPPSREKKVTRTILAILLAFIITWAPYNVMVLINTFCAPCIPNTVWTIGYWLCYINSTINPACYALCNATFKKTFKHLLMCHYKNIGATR
Details: for Efficiency: boosting of the acetylcholine effect at EC20 acetylcholine concentration

[1] = Receptor activity EC50, M2-GIRK1/4 activation test, acetylcholine at EC20, allosteric potency, in some cases mean values from two or more determinations
[2] = Receptor activity EC50, allosteric potency at EC20 acetylcholine, M2-GIRK1/4 reporter cells, in some cases mean of two or more determinations
[3] = read-out: Efficiency, boosting of the acetylcholine effect at EC20 acetylcholine concentration, M2-GIRK1/4 reporter cells

| Structure (SMILES) | pEC50 [1] | pEC50 [2] | also measured |
| --- | --- | --- | --- |
| Cc1cccc(C(NC(=O)c2cn(-c3ccc(F)cc3F)c3nc(N(C)C)ccc3c2=O)C(F)(F)F)c1 (racemic) [Example 138, rac-1-(2,4-Difluorophenyl)-7-(dimethylamino)-4-oxo-N-[2,2,2-trifluoro-1-(3-methylphenyl)ethyl]-1,4-dihydro-1,8-naphthyridine-3-carboxamide] | 7.17 |  |  |
| CC[C@@H](NC(=O)c1cn(-c2ccccc2C(F)(F)F)c2nc(N3C[C@@H](O)CC3=O)ccc2c1=O)C(F)(F)F (single isomer, unassigned) [Example 269] | 6.68 |  |  |
| CN(C)c1ccc2c(=O)c(C(=O)NCc3c(Cl)cccc3Cl)cn(-c3ccc(F)cc3F)c2n1 [Example 49, N-(2,6-Dichlorobenzyl)-1-(2,4-difluorophenyl)-7-(dimethylamino)-4-oxo-1,4-dihydro-1,8-naphthyridine-3-carboxamide] | 7.05 |  |  |
| CN(C)c1ccc2c(=O)c(C(=O)NC34CC5CC(CC(C)(C5)C3)C4)cn(-c3ccc(F)cc3F)c2n1 [Example 41, 1-(2,4-Difluorophenyl)-7-(dimethylamino)-N-(3-methyltricyclo[3.3.1.1^3,7]dec-1-yl)-4-oxo-1,4-dihydro-1,8-naphthyridine-3-carboxamide] | 7.41 |  |  |
| O=C(NC12CC3CC(CC(C3)C1)C2)c1cn(-c2ccc(F)cc2F)c2nc(N3CCC(F)CC3)ccc2c1=O [Example 5, 1-(2,4-Difluorophenyl)-7-(4-fluoropiperidin-1-yl)-4-oxo-N-(tricyclo[3.3.1.1^3,7]dec-1-yl)-1,4-dihydro-1,8-naphthyridine-3-carboxamide] | 7.51 |  |  |
| CC1(O)CCN(c2ccc3c(=O)c(C(=O)NC(C4CC4)C(F)(F)F)cn(-c4c(F)cccc4F)c3n2)C1 (racemic) [Example 326, N-[1-Cyclopropyl-2,2,2-trifluoroethyl]-1-(2,6-difluorophenyl)-7-[3-hydroxy-3-methylpyrrolidin-1-yl]-4-oxo-1,4-dihydro-1,8-naphthyridine-3-carboxamide] | 7.33 |  |  |
| CCC(NC(=O)c1cn(-c2ccc(F)cc2F)c2nc(NCC(F)F)ccc2c1=O)C(F)(F)F (racemic) [Example 122, rac-7-[(2,2-Difluoroethyl)amino]-1-(2,4-difluorophenyl)-4-oxo-N-[1,1,1-trifluorobutan-2-yl]-1,4-dihydro-1,8-naphthyridine-3-carboxamide] | 7.03 |  |  |
| CC(C)CC(NC(=O)c1cn(-c2ccc(F)cc2F)c2nc(NCC(F)(F)F)ccc2c1=O)C(F)(F)F (racemic) [Example 95, rac-1-(2,4-Difluorophenyl)-4-oxo-7-[(2,2,2-trifluoroethyl)amino]-N-[1,1,1-trifluoro-4-methylpentan-2-yl]-1,4-dihydro-1,8-naphthyridine-3-carboxamide] | 6.84 |  |  |
| CCC(NC(=O)c1cn(-c2ccc(F)cc2F)c2nc(N(C)C)ccc2c1=O)C(F)(F)F (racemic) [Example 146, rac-1-(2,4-Difluorophenyl)-7-(dimethylamino)-4-oxo-N-(1,1,1-trifluorobutan-2-yl)-1,4-dihydro-1,8-naphthyridine-3-carboxamide] | 7.59 |  |  |
| CNc1ccc2c(=O)c(C(=O)NC34CC5CC(C3)C(F)(F)C(C5)C4)cn(-c3ccc(F)cc3F)c2n1 [Example 161] | 6.86 |  |  |
| CN(CCF)c1ccc2c(=O)c(C(=O)NC34CC5CC(CC(C5)C3)C4)cn(-c3ccc(F)cc3F)c2n1 [Example 101, 1-(2,4-Difluorophenyl)-7-[(2-fluoroethyl)(methyl)amino]-4-oxo-N-(tricyclo[3.3.1.1^3,7]dec-1-yl)-1,4-dihydro-1,8-naphthyridine-3-carboxamide] | 7.59 |  |  |
| CC(C)CC(NC(=O)c1cn(-c2ccc(F)cc2F)c2nc(NCC(F)F)ccc2c1=O)C(F)(F)F (racemic) [Example 125, rac-7-[(2,2-Difluoroethyl)amino]-1-(2,4-difluorophenyl)-4-oxo-N-[1,1,1-trifluoro-4-methylpentan-2-yl]-1,4-dihydro-1,8-naphthyridine-3-carboxamide] | 6.94 |  |  |
| CCCC(NC(=O)c1cn(-c2ccc(F)cc2F)c2nc(N(C)CCF)ccc2c1=O)C(F)(F)F (stereo not drawn) [Example 106, 1-(2,4-Difluorophenyl)-7-[(2-fluoroethyl)(methyl)amino]-4-oxo-N-[1,1,1-trifluoropentan-2-yl]-1,4-dihydro-1,8-naphthyridine-3-carboxamide] | 7.49 |  |  |
| CCC(NC(=O)c1cn(-c2ccc(F)cc2F)c2nc(N(C)CC(F)(F)F)ccc2c1=O)C(F)(F)F (racemic) [Example 100] | 6.84 |  |  |
| CC[C@H](NC(=O)c1cn(-c2c(F)cc(F)cc2F)c2nc(N3CC4CC4(O)C3)ccc2c1=O)C(F)(F)F (mixture of isomers) [Example 416, 7-[1-Hydroxy-3-azabicyclo[3.1.0]hex-3-yl]-4-oxo-N-[(2S)-1,1,1-trifluorobutan-2-yl]-1-(2,4,6-trifluorophenyl)-1,4-dihydro-1,8-naphthyridine-3-carboxamide] |  | 8.10 | Emax (read-out: Efficiency): 92% |

The next lines start with results.

| pEC50 [1] | pEC50 [2] | Structure (SMILES) | also measured |
| --- | --- | --- | --- |
|  | 7.92 | CCC(NC(=O)c1cn(-c2c(F)cc(F)cc2F)c2nc(N3C[C@@H](O)[C@H](O)C3)ccc2c1=O)C(C)C (mixture of isomers) [Example 487, 7-[(3R,4R)-3,4-Dihydroxypyrrolidin-1-yl]-N-[2-methylpentan-3-yl]-4-oxo-1-(2,4,6-trifluorophenyl)-1,4-dihydro-1,8-naphthyridine-3-carboxamide] | Emax [3]: 96.5% |
|  | 7.60 | O=C(N[C@@H](C1CC1)C(F)(F)F)c1cn(-c2c(F)cc(F)cc2F)c2nc(N3CCCNC3=O)ccc2c1=O [Example 604, N-[(1S)-1-Cyclopropyl-2,2,2-trifluoroethyl]-4-oxo-7-(2-oxotetrahydropyrimidin-1(2H)-yl)-1-(2,4,6-trifluorophenyl)-1,4-dihydro-1,8-naphthyridine-3-carboxamide] | Emax [3]: 93.5% |
|  | 7.62 | C[C@H](NC(=O)c1cn(-c2c(F)cc(F)cc2F)c2nc(N3C[C@@H](O)CC3=O)ccc2c1=O)C1CC1 [Example 478, N-[(1 S)-1-Cyclopropylethyl]-7-[(4S)-4-hydroxy-2-oxopyrrolidin-1-yl]-4-oxo-1-(2,4,6-trifluorophenyl)-1,4-dihydro-1,8-naphthyridine-3-carboxamide] | Emax [3]: 100% |
|  | 7.05 | O=C(NC12CC(C1)C2)c1cn(-c2c(F)cc(F)cc2F)c2nc(N3CCNC3=O)ccc2c1=O [Example 653, N-(Bicyclo[1.1.1]pent-1-yl)-4-oxo-7-(2-oxoimidazolidin-1-yl)-1-(2,4,6-trifluorophenyl)-1,4-dihydro-1,8-naphthyridine-3-carboxamide] | Emax [3]: 86.5% |
|  | 7.34 | C[C@@H](NC(=O)c1cn(-c2c(F)cc(F)cc2F)c2nc(N3C[C@@H](O)CC3=O)ccc2c1=O)C1CC1 [Example 480, N-[(1R)-1-Cyclopropylethyl]-7-[(4S)-4-hydroxy-2-oxopyrrolidin-1-yl]-4-oxo-1-(2,4,6-trifluorophenyl)-1,4-dihydro-1,8-naphthyridine-3-carboxamide] | Emax [3]: 100% |
| 6.83 |  | O=C(NC(c1c(F)cccc1F)C(F)(F)F)c1cn(-c2ccc(F)cc2F)c2nc(N3CCC(O)CC3=O)ccc2c1=O (single isomer, unassigned) [Example 256, 1-(2,4-Difluorophenyl)-N-[1-(2,6-difluorophenyl)-2,2,2-trifluoroethyl]-7-[4-hydroxy-2-oxopiperidin-1-yl]-4-oxo-1,4-dihydro-1,8-naphthyridine-3-carboxamide] |  |
|  | 7.89 | CCC(COC(F)(F)F)NC(=O)c1cn(-c2c(F)cc(F)cc2F)c2nc(N3C[C@@H](O)[C@H](O)C3)ccc2c1=O (mixture of isomers) [Example 576, 7-[(3R,4R)-3,4-Dihydroxypyrrolidin-1-yl]-4-oxo-N-[1-(trifluoromethoxy)butan-2-yl]-1-(2,4,6-trifluorophenyl)-1,4-dihydro-1,8-naphthyridine-3-carboxamide] | Emax [3]: 99.5% |
|  | 7.64 | O=C(NC(CC(F)(F)F)C1CC1)c1cn(-c2c(F)cc(F)cc2F)c2nc(N3C[C@@H](O)[C@H](O)C3)ccc2c1=O (single isomer, unassigned) [Example 440] | Efficiency (M2-GIRK1/4 reporter cells): 98.5% |
|  | 7.02 | CC1CN(c2ccc3c(=O)c(C(=O)N[C@@H](C4CC4)C(F)(F)F)cn(-c4c(F)cc(F)cc4F)c3n2)C(=O)O1 (stereo in doubt) [Example 445, N-[(1 S)-1-Cyclopropyl-2,2,2-trifluoroethyl]-7-[(5S)-5-methyl-2-oxo-1,3-oxazolidin-3-yl]-4-oxo-1-(2,4,6-trifluorophenyl)-1,4-dihydro-1,8-naphthyridine-3-carboxamide] | Efficiency (M2-GIRK1/4 reporter cells): 97.5% |
|  | 8.00 | CC(NC(=O)c1cn(-c2c(F)cc(F)cc2F)c2nc(N3C[C@@H](O)[C@H](O)C3)ccc2c1=O)(C1CC1)C(F)(F)F (single isomer, unassigned) [Example 442] | Emax [3]: 100% |
| 6.77 |  | CC(NC(=O)c1cn(-c2ccc(F)cc2F)c2nc(N3CCCC3=O)ccc2c1=O)C(F)(F)F (stereo not drawn) [Example 179] |  |
